In ChEMBL document CHEMBL1147114, “Fluoroquinolone resistance in Haemophilus influenzae is associated with hypermutability” (2007) one finds MIC data, which are given here for 4 compounds.

What all share (format): functional
Assay [1] concerns Haemophilus influenzae. As to the kind of experiment: Antimicrobial susceptibility against Haemophilus influenzae B1 isolate with GyrA Asp88Tyr and AcrR Leu31His mutation.
Assay [2] concerns Haemophilus influenzae. In words: Antimicrobial susceptibility against Haemophilus influenzae C isolate with AcrR Leu31His and Arg34Glu mutation.
Assay [3] relates to Haemophilus influenzae. In words: Antimicrobial susceptibility against Haemophilus influenzae B isolate with AcrR Leu31His mutation.
Assay [4] deals with Haemophilus influenzae. As to the kind of experiment: Antimicrobial susceptibility against Haemophilus influenzae D4 isolate with GyrA Ser84Tyr, ParC Glu88Lys and AcrR Leu31His, Ile121Val and Gln134Lys mutation.
In assay [5] the test system is Haemophilus influenzae. As to the kind of experiment: Antimicrobial susceptibility against Haemophilus influenzae D2 isolate with GyrA Ser84Tyr, ParC Glu88Lys and AcrR Leu31His, Ile121Val and Gln134Lys mutation.
Assay [6] relates to Haemophilus influenzae. As to the kind of experiment: Antimicrobial susceptibility against Haemophilus influenzae A2 with GyrA Glu83Cys, ParC Ser84Arg and AcrR 97stop codon mutation.
Assay [7] concerns Haemophilus influenzae. In words: Antimicrobial susceptibility against Haemophilus influenzae A1 isolate with GyrA Glu83Cys, ParC Ser84Arg and AcrR 97stop codon mutation.
For assay [8], the system named is Haemophilus influenzae. In words: Antimicrobial susceptibility against Haemophilus influenzae C1 isolate with GyrA Asp88Asn, AcrR Leu31His and Arg34Glu mutation.
Assay [9] relates to Haemophilus influenzae. As to the kind of experiment: Antimicrobial susceptibility against Haemophilus influenzae A4 isolate with GyrA Glu83Cys, ParC Ser84Arg and AcrR 97stop codon mutation.
Assay [10] concerns Haemophilus influenzae. In words: Antimicrobial susceptibility against Haemophilus influenzae D isolate with AcrR Leu31His, Ile121Val and Gln134Lys mutation.
Assay [11] has as its system Haemophilus influenzae. As to the kind of experiment: Antimicrobial susceptibility against Haemophilus influenzae A3 isolate with GyrA Glu83Cys, ParC Ser84Arg and AcrR 97stop codon mutation.
For assay [12], the system named is Haemophilus influenzae. As to the kind of experiment: Antimicrobial susceptibility against Haemophilus influenzae D3 isolate with GyrA Ser84Tyr, ParC Glu88Lys and AcrR Leu31His, Ile121Val and Gln134Lys mutation.
The test system of assay [13] is Haemophilus influenzae. In words: Antimicrobial susceptibility against Haemophilus influenzae A isolate with GyrA Glu83Cys and AcrR 97stop codon mutation.
Assay [14] has as its system Haemophilus influenzae. In words: Antimicrobial susceptibility against Haemophilus influenzae C3 isolate with GyrA Asp88Asn, ParC Ser84Ile, AcrR Leu31His and Arg34Glu mutation.
Assay [15] concerns Haemophilus influenzae. In words: Antimicrobial susceptibility against Haemophilus influenzae C2 isolate with GyrA Asp88Asn, AcrR Leu31His and Arg34Glu mutation.
The subject of assay [16] is Haemophilus influenzae. As to the kind of experiment: Antimicrobial susceptibility against Haemophilus influenzae B2 isolate with GyrA Asp88Tyr and AcrR Leu31His mutation.
Assay [17] deals with Haemophilus influenzae. In words: Antimicrobial susceptibility against Haemophilus influenzae D1 isolate with GyrA Ser84Tyr, ParC Glu88Lys and AcrR Leu31His, Ile121Val and Gln134Lys mutation.

Each structure is given as a SMILES string. ≈ marks a conversion by molar mass, not a printed value.

As for `O=C(O)c1cn(C2CC2)c2cc(N3CCNCC3)c(F)cc2c1=O` [CIPROFLOXACIN], the MIC in the assay on Haemophilus influenzae [1] came out at 0.12 µg/mL (≈ 0.362 µM); against Haemophilus influenzae [2] it was 0.01 µg/mL (≈ 0.0302 µM); against Haemophilus influenzae [3], 0.03 µg/mL (≈ 0.0905 µM); against Haemophilus influenzae [4], 16 µg/mL (≈ 48.3 µM); against Haemophilus influenzae [5] it was 4 µg/mL (≈ 12.1 µM); in the assay on Haemophilus influenzae [6], 0.25 µg/mL (≈ 0.754 µM). Besides, the MIC against Haemophilus influenzae [7] was found to be 0.25 µg/mL (≈ 0.754 µM); against Haemophilus influenzae [8], 0.12 µg/mL (≈ 0.362 µM); against Haemophilus influenzae [9] it was 4 µg/mL (≈ 12.1 µM); in the assay on Haemophilus influenzae [10], 0.01 µg/mL (≈ 0.0302 µM); with Haemophilus influenzae [11], 2 µg/mL (≈ 6.04 µM); in the assay on Haemophilus influenzae [12] it was 8 µg/mL (≈ 24.1 µM). Also, the MIC came to 0.01 µg/mL (≈ 0.0302 µM) in the assay on Haemophilus influenzae [13]; 8 µg/mL (≈ 24.1 µM) against Haemophilus influenzae [14]; 2 µg/mL (≈ 6.04 µM) in the assay with Haemophilus influenzae [15]; 0.25 µg/mL (≈ 0.754 µM) against Haemophilus influenzae [16]; 1 µg/mL (≈ 3.02 µM) in the assay on Haemophilus influenzae [17].

In the case of `C[C@H]1COc2c(N3CCN(C)CC3)c(F)cc3c(=O)c(C(=O)O)cn1c23.C[C@H]1COc2c(N3CCN(C)CC3)c(F)cc3c(=O)c(C(=O)O)cn1c23.O` [LEVOFLOXACIN], the MIC with Haemophilus influenzae [1] is 0.25 µg/mL; in the assay on Haemophilus influenzae [2], 0.03 µg/mL; with Haemophilus influenzae [3], 0.03 µg/mL; against Haemophilus influenzae [4], 4 µg/mL; against Haemophilus influenzae [5], 2 µg/mL; in the assay with Haemophilus influenzae [6] it was 0.5 µg/mL. Moreover, the MIC against Haemophilus influenzae [7] is 0.25 µg/mL; with Haemophilus influenzae [8], 0.12 µg/mL; against Haemophilus influenzae [9], 4 µg/mL; against Haemophilus influenzae [10], 0.03 µg/mL; in the assay with Haemophilus influenzae [11], 0.5 µg/mL; in the assay with Haemophilus influenzae [12] it was 4 µg/mL. Also, the MIC with Haemophilus influenzae [13] worked out at 0.03 µg/mL; against Haemophilus influenzae [14], 8 µg/mL; against Haemophilus influenzae [15], 2 µg/mL; in the assay with Haemophilus influenzae [16] it was 0.25 µg/mL; with Haemophilus influenzae [17] it was 0.5 µg/mL.

For the compound `COc1c(N2C[C@@H]3CCCN[C@@H]3C2)c(F)cc2c(=O)c(C(=O)O)cn(C3CC3)c12` [MOXIFLOXACIN], the MIC came out at 0.25 µg/mL (≈ 0.623 µM) in the assay on Haemophilus influenzae [1]; 0.03 µg/mL (≈ 0.0747 µM) in the assay on Haemophilus influenzae [2]; 0.06 µg/mL (≈ 0.149 µM) against Haemophilus influenzae [3]; 2 µg/mL (≈ 4.98 µM) in the assay with Haemophilus influenzae [4]; 2 µg/mL (≈ 4.98 µM) against Haemophilus influenzae [5]; 0.5 µg/mL (≈ 1.25 µM) in the assay on Haemophilus influenzae [6]. Further, the MIC in the assay on Haemophilus influenzae [7] amounted to 0.5 µg/mL (≈ 1.25 µM); in the assay on Haemophilus influenzae [8], 0.12 µg/mL (≈ 0.299 µM); with Haemophilus influenzae [9], 2 µg/mL (≈ 4.98 µM); against Haemophilus influenzae [10] it was 0.03 µg/mL (≈ 0.0747 µM); in the assay on Haemophilus influenzae [11], 0.5 µg/mL (≈ 1.25 µM); against Haemophilus influenzae [12], 2 µg/mL (≈ 4.98 µM). Moreover, the MIC in the assay with Haemophilus influenzae [13] was 0.03 µg/mL (≈ 0.0747 µM); against Haemophilus influenzae [14], 4 µg/mL (≈ 9.96 µM); in the assay on Haemophilus influenzae [15], 4 µg/mL (≈ 9.96 µM); against Haemophilus influenzae [16], 0.25 µg/mL (≈ 0.623 µM); in the assay with Haemophilus influenzae [17] it was 0.5 µg/mL (≈ 1.25 µM).

With `CCn1cc(C(=O)O)c(=O)c2ccc(C)nc21` [NALIDIXIC ACID], the MIC worked out at 32 µg/mL (≈ 138 µM) with Haemophilus influenzae [1]; 0.5 µg/mL (≈ 2.15 µM) against Haemophilus influenzae [2]; 0.5 µg/mL (≈ 2.15 µM) against Haemophilus influenzae [3]; 128 µg/mL (≈ 551 µM) in the assay with Haemophilus influenzae [4]; 64 µg/mL (≈ 276 µM) with Haemophilus influenzae [5]; 64 µg/mL (≈ 276 µM) in the assay on Haemophilus influenzae [6]. For the same compound, the MIC in the assay with Haemophilus influenzae [7] came to 1 µg/mL (≈ 4.31 µM); against Haemophilus influenzae [8] it was 16 µg/mL (≈ 68.9 µM); in the assay with Haemophilus influenzae [9], 128 µg/mL (≈ 551 µM); against Haemophilus influenzae [10] it was 0.5 µg/mL (≈ 2.15 µM); against Haemophilus influenzae [11], 64 µg/mL (≈ 276 µM); against Haemophilus influenzae [12], 128 µg/mL (≈ 551 µM). The MIC with Haemophilus influenzae [13] came to 0.5 µg/mL (≈ 2.15 µM); against Haemophilus influenzae [14], 128 µg/mL (≈ 551 µM); against Haemophilus influenzae [15], 128 µg/mL (≈ 551 µM); with Haemophilus influenzae [16] it was 64 µg/mL (≈ 276 µM); against Haemophilus influenzae [17], 64 µg/mL (≈ 276 µM).
